Results on 2 substances are retold here after paper PMC5789083, “Mechanisms driving the antibacterial and antibiofilm properties of Hp1404 and its analogue peptides against multidrug-resistant Pseudomonas aeruginosa” (Scientific Reports, 2018).

In one series the test system is P. aeruginosa ATCC 27853. Put plainly: Time-killing assay. It counts as cell-based, Pseudomonas aeruginosa. The settings on record: at 2 hours; 2× MIC, P. aeruginosa ATCC 27853, 2 × 10^5 CFU/mL, colony counts in triplicate. The text has this:
Peptide synthesis and purification. The peptides were s ynthesized using the solid- phase-9-fluorenylmethoxycarbonyl (Fmoc) method, as reported previously1, on a Rink amide 4-methylbenzhydrylamine resin, using a Liberty microwave peptide synthesizer (CEM, Matthews, NY, USA). The following chemicals were us ed as linkage reagents: 0.45 M 2- (1H - benzotriazole-1- yil)-1,1,3,3- tetramethyluronium hexafluorophosphate (HBTU) diluted in dimethylformamide (DMF), 0.1 M N -hydroxybenzotriazole (HOBt) diluted in piperidine/DMF, and 2 M N ,N -diisopropyleth ylamine (DIEA) diluted in N -methylp yrrolidone (NMP). After washing with dichloromethane (DCM), cleavage was performed by incubating for 2 h at 25 °C in a trifluoroacetic acid (TFA) solution containing water, phenol, and triisopropylsilane. The crude peptide was precipitated by dilution with ice-cold diethyl ether, then spread on the tube wall, and dried. After resuspension in 25 °C water, the peptide was purified by reversed phase high- performance liquid chromatograph y (RP-HP LC) on a Jupiter C18 column (4.6 × 250 mm, 300 Å, 5 µm; Phenomenex, Torrance, CA, USA). […]
(§1) Ti me -killing assay. […] After an 18- h incubation, the colonies were counted and aver age counts wer e determined.
(§2) Calcein leakage assay. […] The fluorescence generated from the […]

Series [1] is described as follows: Calcein leakage assay, PC:CH:SM LUVs. The note with it: PC:CH:SM (1:1:1, w/w) LUVs mimicking mammalian cell membranes (Fig. S4).
Source text: Peptide synthesis and purification. The peptides were s ynthesized using the solid- phase-9-fluorenylmethoxycarbonyl (Fmoc) method, as reported previously1, on a Rink amide 4-methylbenzhydrylamine resin, using a Liberty microwave peptide synthesizer (CEM, Matthews, NY, USA). The following chemicals were us ed as linkage reagents: 0.45 M 2- (1H - benzotriazole-1- yil)-1,1,3,3- tetramethyluronium hexafluorophosphate (HBTU) diluted in dimethylformamide (DMF), 0.1 M N -hydroxybenzotriazole (HOBt) diluted in piperidine/DMF, and 2 M N ,N -diisopropyleth ylamine (DIEA) diluted in N -methylp yrrolidone (NMP). […]
as §1, §2
(§3) released calcein was measured at an excitation wavelength of 480 nm and an emission […]
PI uptake assay. Bacteri al membrane damage was assessed through monitoring the changes in fluorescence generated by the propidium iodide (P I) dye, as described previousl y4. […] PI fluorescence was monitored at an excitation wavelength of 580 nm and emission wavelength of 620 nm, using a micropl ate reader (Molecular Devices Co., Sunnyvale, CA, USA), during 30 min.

The test system of another series is mouse red blood cells. As to the kind of experiment: Hemolytic activity. The settings on record: 8% mouse RBCs in PBS, 37 °C, 1 h, A414, triplicate. It counts as cell-based. As for the experimental part:
The hemolytic activities of the peptides were determined as previously described. Fresh mouse red blood cells (RBCs) were washed and diluted to 8% with PBS. RBC suspension was added to 96-well plates (100 µL/well), mixed with an equal volume of serially diluted peptides, and incubated at 37 °C for 1 h with gentle shaking. The plate was centrifuged and the supernatant was transferred to a 96-well plate. The absorbance at 414 nm was measured with a Versa-Max ELISA reader (Molecular Devices). PBS and 0.1% Triton X-100 were used as negative and positive controls, respectively. The experiment was performed in triplicate. The hemolysis rate was calculated using the following formula[55]: % Hemolysis = [(Abs 414 nm in the peptide solution-Abs 414 nm in PBS)/(Abs 414 nm in 0.1% Triton X-100-Abs 414 nm in PBS)] × 100

For another series, the system named is trypsin. As to the kind of experiment: Trypsin stability assay. It counts as in vitro ADME. The settings on record: trypsin (25 nM) in sodium phosphate buffer, 20 µg peptide in 100 µL 10 mM sodium phosphate buffer pH 7.4 with 25 nM trypsin, 37 °C, RP-HPLC peak area of native peptide (C18), repeated three times, read-out: remaining peptide after trypsin treatment. As for the experimental part: Each sample with trypsin was analysed by RT-HPLC on a Jupiter C18 column (4.6 × 250 mm, 300 Å, 5 µm; Phenomenex). Stability was expressed as the percentage of remaining peptide, which in turn was determined by comparing the HPLC peak areas, corresponding to the peak detected for the native peptide, before and after trypsin treatment. […]
as §3
Trypsin stability assay. Peptides were treated with trypsin, and results were ev aluated usin g RP-HP LC, as described previously3. Briefly, 20 µ g of peptide was mixed with 100 µ L of 10 mM sodium phosphate buffer (pH 7.4) containing 25 nM trypsin (Sigma-Aldrich), and incubated at 37 °C for 1 h or 2 h. A fter incubation, 20 µL of each sampl e was anal ysed b y RT-HP LC on a J upiter C18 column (4.6 × 250 m m, 300 Å, 5 µm; Phenomenex).
PI uptake assay. Bacteri al membrane damage was assessed through monitoring the changes in fluorescence generated by the propidium iodide (P I) dye, as described previousl y4. Briefl y, P. aeruginosa ATCC 27853 was grown in NB to logarithmic phase of growth, and then diluted to OD600 = 0.25 in 10 mM sodium phosphate (pH 7.2) buffer with 10 % medium. […] PI fluorescence was monitored at an excitation wavelength of 580 nm and emission wavelength of 620 nm, using a micropl ate reader (Molecular Devices Co., Sunnyvale, CA, USA), during 30 min.

The next series concerns mammalian cells. The note with it: at concentrations below 50 µM; cited from earlier work. As for the experimental part: In a previous study, Hp1404 was purified from the venomous gland of the scorpion Heterometrus petersii. […] Moreover, it is not toxic to mammalian cells at concentrations below 50 µM[20].

Where no end group is shown, it is not given here.

In the series on P. aeruginosa ATCC 27853, ILKKLLKKVKKI-NH2 [Hp1404-T1e] displayed a bacteria killed of 85%. In addition, the “toxicity by calcein leakage assay” value in series [1] is “not toxic”.
For the substance GILGKLWEGVKSIF-NH2 [Hp1404], the hemolysis rate in the series with mouse red blood cells (12.5 µM) stood at 2%; in the series with mouse red blood cells (25 µM) it was 11%; with mouse red blood cells (50 µM), 55%; in the series on mouse red blood cells (100 µM) it was 92%; in the series with mouse red blood cells (200 µM), 100%. Further, the fraction remaining (as a rule, the share of the starting amount still present when the sample was taken) at 2 h, 0.2 mg/mL in the series with trypsin was 50%. Also, the “toxicity to mammalian cells” value in the series on mammalian cells is “not toxic”.
